Reference: article PMC314469, “Protein Interaction Networks by Proteome Peptide Scanning” (PLoS Biology, 2004)

test system: Myo5 SH3 domain; test: SPOT analysis of cellulose-bound peptides (WISE), Myo5 SH3 domain (Dataset S4); format: binding, Saccharomyces cerevisiae; settings: SPOT analysis of cellulose-bound 14-mer yeast proteome peptides, Myo5 SH3 domain; normalized value; mean where the peptide was synthesized more than once

| Sequence | The normalized value in BLU units [BLU] |
| --- | --- |
| KAVHLYFPILPHCG | 125.3 |
| KELLLIPPGFPTKN | 122.9 |
| KELNLTGPKVPEDI | 102.4 |
| KEVDLTRPSAPSEP | 132.2 |
| KFFKHLYPAIPILD | 217.0 |
| KFRQMFKPLAPNTR | 1217.4 |
| KFTDMLDPEKPNVI | 262.4 |
| KFVIHNEPIDPSDK | 46.7 |
| KGVLKEYPMRPYGS | 116.8 |
| KIVRRDYPSTPVIV | 366.1 |
| KKNKKKVPLNPLAK | 522.6 |
| KLAILTCPFEPPKP | 173.2 |
| KLALHQYPNFPSEG | 130.3 |
| KLAPLNCPSLPTTN | 211.6 |
| KLDPLGEPFDPNKH | 275.7 |
| KLFVLLPPIDPKDG | 258.2 |
| KLKSLNLPQLPPPK | 674.9 |
| KLPDLKLPPSPVPS | 231.2 |
| KLVKFKLPFLPISD | 974.1 |

| Sequence | The normalized value in BLU units [BLU] |
| --- | --- |
| KNIIKYVPWGPPLE | 164.4 |
| KPKMLPIPSKPTLF | 1355.0 |
| KPKVLFHPHWPLYI | 195.5 |
| KPLKFLRPTYPDLC | 149.2 |
| KPLNLSKPISPPPS | 254.3 |
| KPMLHNVPHDPSLP | 412.6 |
| KPPVYRLPPLPRLK | 2305.8 |
| KPSGYYGPNSPLKL | 159.2 |
| KPSLWEAPQNPPYS | 152.4 |
| KQLKKQGPKRPSSA | 468.1 |
| KSYRKADPTNPQGW | 103.0 |
| KTKKKTVPVKPLQL | 358.9 |
| KTVDKGLPMIPTYV | 76.8 |
| KWTIMPHPNRPNAA | 428.7 |
| KYIIKTEPESPEED | 245.5 |
| LAIRLCWPPAPVTL | 154.7 |
| LALLMTDPDAPSRT | 177.5 |
| LASPFHDPILPRRT | 288.3 |
| LDSMKNLPLNPSKK | 268.3 |

same assay, conditions: SPOT analysis of cellulose-bound peptides probed with Myo5 SH3 domain; normalized value

| Sequence | The normalized value in BLU units (SPOT analysis, Myo5 SH3) [BLU] |
| --- | --- |
| KEFRFIFPLQPLFI | 749.7 |
| KELIYKQPSGPGLV | 79.3 |
| KELPFTGPSIPFEN | 338.9 |
| KEQNWKHPLLPLLK | 321.0 |
| KESKFGTPEKPLSD | 249.8 |
| KFLIHNEPIDPNDR | 121.7 |
| KFPLMDKPSIPTLR | 431.6 |
| KFTDMQVPKGPVCP | 197.0 |
| KLEDLNEPLSPWIS | 71.1 |
| KLGRFTNPQQPRED | 227.3 |
| KLNCLQIPHLPPSV | 349.8 |
| KLPKLNVPLNPKGK | 304.7 |
| KLPQLPPPPPPPPP | 54143.7 |
| KLWDLSKPSKPLKE | 233.1 |
| KPAVLHYPPIPASA | 183.1 |
| KPPSYPSPAQPPKS | 11899.6 |
| KPPSYPSPVQPPQS | 16459.5 |
| KPSVMKLPPSPKQP | 380.5 |
| KWKSLFPPFFPCDI | 241.7 |
| LAKDLIVPRRPEWN | 117125.4 |
| LEDALHVPTNPEIL | 191.1 |
| LEFSHYAPTAPHVQ | 103.0 |

same assay, conditions: SPOT analysis of membrane-bound peptides, Myo5 SH3 domain; normalized value (see methods)

| Sequence | The normalized value in BLU units [BLU] |
| --- | --- |
| KDEVKLHPPEPKDL | 163.7 |
| KDFSKNAPYNPSEV | 142.6 |
| KDKARGNPEKPPYW | 59.9 |
| KEFFRLTPNQPVGL | 43.8 |
| KFDAKGRPIPPHPD | 53.5 |
| KFFKREYPDIPMIA | 154.6 |
| KIIKKCSPSVPKEE | 242.5 |
| KIVERGPPYPPDLR | 137.7 |
| KKIAKGDPKIPMQN | 720.5 |
| KKIIKDVPGTPSDK | 162.7 |
| KKKKKNGPGAPQGY | 328.8 |
| KKNDRPSPLKPIQH | 340.9 |
| KLHEKYFPDLPKEV | 110.4 |
| KLKIKILPEQPQLE | 261.3 |
| KLNKRVLPSKPKKS | 918.8 |
| KLPKKFPPPTPLLE | 19656.3 |
| KLVLRNVPILPILN | 303.3 |
| KLYYRHRPQKPVRT | 915.7 |
| KNLKKYDPEDPNRR | 207.1 |

| Sequence | The normalized value in BLU units [BLU] |
| --- | --- |
| KQKKKPTPTRPYNY | 516.2 |
| KQLMKNLPKIPLLN | 580.1 |
| KRNSKHAPFIPVKP | 381.6 |
| KRRSKSLPITPKSI | 920.9 |
| KRRSKSLPTTPGIR | 592.0 |
| KSIPRTKPNVPPLQ | 343.4 |
| KSLQKFEPRYPKTA | 244.9 |
| KTGRKTFPFLPYQI | 466.0 |
| KTSTKAQPAEPQAE | 166.8 |
| KVIRKGSPKSPAMV | 495.7 |
| KVNFRRIPTGPDSP | 502.6 |
| KVQIKKVPTDPSSS | 191.2 |
| KVSSKYDPDNPNKD | 434.5 |
| KYCFKLVPPQPGSK | 218.8 |
| LAAHKTKPSIPPKK | 248.8 |
| LAPKREAPKPPANT | 116079.9 |
| LDKGKHVPSKPVSN | 200.9 |
| LDTHKESPLRPKVR | 199.3 |
| LEFPKDYPLSPPKL | 134.8 |

same assay, conditions: SPOT analysis of membrane-synthesized peptides probed with Myo5 SH3 domain; normalized value

| Sequence | The normalized value in BLU units (SPOT analysis, Myo5 SH3) [BLU] |
| --- | --- |
| KHEPKKSPTTPALA | 726.2 |
| KITKKLGPKLPKAS | 680.7 |
| KKHDKLHPNYPSVK | 406.8 |
| KKHDKLYPKYPSVK | 339.6 |
| KKNPKKSPMGPQGA | 1007.5 |
| KKVIRNYPGHPEGT | 417.8 |
| KMAKKLLPYKPHNS | 707.5 |
| KMSAKNTPKHPVDI | 307.2 |
| KNILKVCPVLPSIL | 117.9 |
| KNLLREIPQVPAFQ | 104.1 |
| KNPTKSPPPPPSPS | 27847.4 |
| KPAGRPIPPAPTHY | 189.4 |
| KQAKRAPPSSPYVV | 295.0 |
| KQRIRKIPGIPLMS | 621.8 |
| KQSKRARPSSPYTV | 271.3 |
| KRKAKAPPPPPPPP | 4025.3 |
| KTRNKPKPLWPQVK | 261.8 |
| KVLIKTLPVLPEAR | 236.7 |
| LAGIRLVPVLPILL | 152.2 |
| LASDKGLPMIPAFV | 79.9 |
| LAYERPLPDLPSTI | 131.9 |
| LDLSKYGPLPPSRA | 154.0 |
| LDPGKNTPGLPEET | 155.6 |
| LDVRRIYPKGPLLV | 231.6 |
